The record followed here is patent US20110002993A1, “FILM COATED TABLETS CONTAINING DROSPIRENONE AS ACTIVE AGENT AND A METHOD FOR THE PREPARATION THEREOF” (RICHTER GEDEON NYRT., priority 2007, published 2011).

This data set can be described thus: solubility of drospirenone in water. The format is physicochemical. The source says: For dissolution of such a large amount of active agent a large amount of pharmaceutically and environmentally acceptable solvent is needed. […] In the preparation process according to the invention the solvent is ethanol. Ethanol is the most advantageous solvent from the environmental and safety point of views.

The structures appear in SMILES notation.

On to `C[C@]12CCC(=O)C=C1[C@@H]1C[C@@H]1[C@H]1[C@@H]3[C@@H]4C[C@@H]4[C@@]4(CCC(=O)O4)[C@@]3(C)CC[C@@H]12` [drospirenone, 6β,7β;15β,16β-dimethylene-3-oxo-17α-pregn-4-en-21,17-carbolactone], for which the solubility in water result was “substantially insoluble in water”.
